The record followed here is patent publication US20230338307A1, “PROPHYLACTIC AGENT, AMELIORATING AGENT, AND THERAPEUTIC AGENT FOR DRY EYE” (TSUBOTA LABORATORY, INC., priority 2020, published 2023).

Test [1] deals with dry eye model. In words: Schirmer test (tear volume), benzalkonium chloride dry eye model, Comparative Study 1 (Example 4). It is filed as in vivo, mice. The settings on record: 0.1% (w/v) apocynin in 0.5% methylcellulose twice a day, 3 days after start; versus 0.5% (w/v) hyaluronic acid group; FIG. 8. Here is the method:
(§1) After acclimating male C57BL6 mice (7 weeks old) to the experimental environment, those with almost uniform weight values and no eye abnormalities were divided into the following groups (n=4). • 7 weeks old/normal (non-dry eye group) • 7 weeks old/dry eye model+control (solvent eye drop) group • 7 weeks old/dry eye model+0.1% (w/v) apocynin eye drop group • 7 weeks old/dry eye model+0.5% (w/v) hyaluronic acid eye drop group A dry eye model was prepared by instilling the benzalkonium chloride solution at 3 μL each eye, twice a day for 8 days. After that, the control group received the 0.5% methylcellulose solution alone, and the test group received 0.1% (w/v) apocynin or 0.5% (w/v) hyaluronic acid suspended in the 0.5% methylcellulose solution twice a day for 15 days at 3 μL for each of both eyes. Schirmer's test was performed 1, 3, 6, and 8 days after the start of instillation of the comparative test drug, and tear volume was evaluated.

Test [2] has as its system dry eye model. In words: Fluorescein staining score, benzalkonium chloride dry eye model, Comparative Study 1 (Example 4). It is filed as in vivo, mice. How it is done: as §1, with “eyes. In Example 4,” for “eyes. Schirmer's test was performed”, “6, 8,” for “6,”, “and 15” for “and 8”, “drug, 1 μL of the 0.1% fluorescein sodium solution was instilled into each of both eyes. Fluorescein-stained images were observed under a blue filter using a slit lamp (Kowa Co., Ltd., SL-17),” for “drug,”, “and the degree of corneal epithelial damage” for “and tear volume”, “was scored.” for “was evaluated.”

With `COc1cc(C(C)=O)ccc1O` [apocynin, 4-hydroxy-3-methoxyacetophenone], the “tear volume (Schirmer test)” value in test [1] is “marked improvement in the tear volume compared to the hyaluronic acid eye drop group”. For the same compound, the “fluorescein staining score (corneal damage)” value in test [2] (3 days after start of instillation, compared to control, 0.1% (w/v) apocynin or 0.5% (w/v) hyaluronic acid twice a day, FIG. 9A) is given as “significantly reduced”; in test [2] (15 days after start of instillation, 0.1% (w/v) apocynin twice a day, FIG. 9B), “significant decrease”.
